From paper PMC10987348, “Ammonium nanochelators in conjunction with arginine-specific enzymes in amperometric biosensors for arginine assay” (Mikrochimica Acta, 2023)

Target: T1, ADI (Metamycoplasma hominis, UniProt P41141)
T1 construct: gene arcA
Experiment: amperometric detection of released ammonium (ADI/nCdCu/GCE electrode)
Assay type: biochemical
Conditions: immobilised enzyme on nCdCu-modified glassy carbon; pH 7.5; -200 mV vs Ag/AgCl

T1 sequence (P41141 2-409): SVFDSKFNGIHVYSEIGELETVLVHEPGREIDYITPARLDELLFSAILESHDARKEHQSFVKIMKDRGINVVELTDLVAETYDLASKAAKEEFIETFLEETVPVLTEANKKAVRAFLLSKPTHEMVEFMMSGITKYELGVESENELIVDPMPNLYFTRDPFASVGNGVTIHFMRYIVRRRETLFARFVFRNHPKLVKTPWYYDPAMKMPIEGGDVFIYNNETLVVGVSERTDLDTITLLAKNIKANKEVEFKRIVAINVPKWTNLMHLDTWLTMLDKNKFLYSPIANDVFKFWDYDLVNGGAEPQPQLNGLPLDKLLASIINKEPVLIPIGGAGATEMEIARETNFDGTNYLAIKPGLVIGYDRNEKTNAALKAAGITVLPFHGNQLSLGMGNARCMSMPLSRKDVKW

Structure (SMILES): N=C(N)NCCC[C@H](N)C(=O)O [L-arginine]
- amperometric detection of released ammonium (ADI/nCdCu/GCE electrode): electrocatalytic activity of three bioelectrodes was evaluated by using CV under the addition of Arg
